# Key:
# [1] = test system: white blood cells and neutrophils; assay: PLAG in combination with G-CSF in cyclophosphamide-treated mouse model; format: in vivo, mice; details: addition of PLAG to G-CSF; levels vs untreated mice
# Description: Mice receive cyclophosphamide (100 mpk, i.p.) for a period of ten days, with or without G-CSF (0.25 mpk, i.p.) or G-CSF (0.25 mpk, i.p.) plus PLAG (25 mpk, p.o.): […]
# platelets = assay: Lipopolysaccharide-induced platelet reduction in mice; format: in vivo; details: LPS 1 mg/kg, PLAG 1 mg/kg, 15 hours after PLAG treatment
# Description: Mice are injected with 100 mg/kg phenylhydrazine (PHZ), i.p., to induce anemia and reduction of platelets. 5 mg/kg PLAG is administered to the mice orally and blood samples are taken at 3 and 13 days after. In addition, for comparison, normal mice which are not treated with phenylhydrazine are prepared as a normal group, and mice treated with PHZ and olive oil instead of PLAG are prepared as a control group. The blood samples taken from the mice are treated with 0.5 ml EDTA (Minicollect tube, Greiner bio-one, Austria) and concentration of platelet is measured using automated blood sample analyzer BC-6800 (Mindray, Shenzhen, China) by number of platelet per […] (k: 1,000).
# The experiment is repeated using Tamoxifen (Tam), an anticancer agent, injected at the amount of 100 mg/kg, or lipopolysaccharide (LPS), an inflammation inducer, at the amount of 1 mg/kg to induce platelet reduction. Platelet concentration is measured 15 hours after PLAG treatment. For comparison, olive oil and PBS are used instead of PLAG as controls, respectively for the Tamoxifen and lipopolysaccharide experiment.
# STAT1 [2] = target: T1, STAT1 (Homo sapiens, UniProt P42224); assay: Dephosphorylation of STAT1 in U937 cell lysate, western blot; format: cell-based; design: endogenous in cells; host or cells: U937; details: U937 cells; PLAG 0.01 to 10 μg/ml; 15 min after 10 ng IFN-γ
# T1 sequence (P42224 1-750): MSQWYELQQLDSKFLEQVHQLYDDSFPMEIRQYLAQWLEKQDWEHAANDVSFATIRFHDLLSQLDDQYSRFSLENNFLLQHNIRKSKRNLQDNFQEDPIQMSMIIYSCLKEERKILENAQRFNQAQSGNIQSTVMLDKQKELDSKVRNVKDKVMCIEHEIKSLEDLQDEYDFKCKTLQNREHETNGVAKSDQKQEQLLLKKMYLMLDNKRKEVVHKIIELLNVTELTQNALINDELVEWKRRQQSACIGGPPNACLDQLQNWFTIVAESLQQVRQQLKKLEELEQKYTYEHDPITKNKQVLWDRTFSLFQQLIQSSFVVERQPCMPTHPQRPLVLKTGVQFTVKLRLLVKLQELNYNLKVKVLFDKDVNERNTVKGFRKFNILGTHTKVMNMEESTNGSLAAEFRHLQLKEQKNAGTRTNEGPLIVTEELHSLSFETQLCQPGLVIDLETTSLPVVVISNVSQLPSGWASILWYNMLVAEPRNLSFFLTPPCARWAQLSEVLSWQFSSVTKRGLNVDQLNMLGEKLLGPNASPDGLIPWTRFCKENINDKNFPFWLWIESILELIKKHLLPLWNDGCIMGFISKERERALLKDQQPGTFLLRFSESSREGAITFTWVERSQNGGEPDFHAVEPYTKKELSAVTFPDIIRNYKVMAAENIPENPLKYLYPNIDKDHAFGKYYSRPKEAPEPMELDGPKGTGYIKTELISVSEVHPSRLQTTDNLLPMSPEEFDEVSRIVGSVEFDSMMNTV
# Description: Dephosphorylation of STAT6 is examined using anti-phosphorylated STAT6 in U937, A549, and Jurkat cell lysates treated with PLAG concentration from 0.01 to 10 μg/ml. Phosphorylation of STAT6 is induced by treatment with 10 ng/ml of IL-4. Dephosphorylation of STAT1 is examined in the U937 cell lysate treated with PLAG (0.01 to 10 μg/ml). Phosphorylation of STAT1 is induced by 10 ng of IFN-γ treatment. Dephosphorylation of STAT1 and STAT6 is examined at 15 min after stimulation with IFN-γ and IL-4 respectively, in the PLAG pretreated cells. […] The transcriptional activity of STAT6 is decreased by the dephosphorylation of STAT6. […] No effect of PLAG on STAT1 phosphorylation is observed.
# STAT1 [3] = target: T1, STAT1; assay: Reporter assay for STAT1 transcriptional activity in HepG2 cells; format: cell-based; design: For the STAT1 assay, gene transfected HepG2 (human hepatocyte cell line) is treated with 10 ng of IFN-γ; endogenous in cells; host or cells: HepG2 (gene transfected); details: gene transfected HepG2, 10 ng IFN-γ, PLAG 0.01-10 μg/ml, 12 hours incubation
# Description: By using STAT6 inhibitor (S6I), it is confirmed that the reduction of Complement 3 in HepG2 cells (human hepatocyte cell line) is regulated by STAT6. […] It is also confirmed that PLAG has selective efficacy on STAT6 over STAT1. FIG. 1 presents graphs showing STAT1 and STAT6 transcriptional activity in the PLAG treated HepG2 cells. NC refers to the unstimulated control cell. For the STAT1 assay, gene transfected HepG2 (human hepatocyte cell line) is treated with 10 ng of IFN-γ and serially diluted PLAG is added (0.01 μg/ml, 0.1 μg/ml, 1 μg/ml, and 10 μg/ml as shown) to see its effect on gene expression in the stimulated cell. For the STAT6 assay, gene transfected HepG2 cells are treated with 10 ng of IL-4 and again serially diluted PLAG is added (0.01 μg/ml, 0.1 μg/ml, 1 μg/ml, and 10 μg/ml as shown) to see its effect on gene expression in the stimulated cell. The assay is carried out following 12 hours incubation of treated cells.
smiles,measurement,setting,value
"CCCCC/C=C\C/C=C\CCCCCCCC(=O)OC(COC(C)=O)COC(=O)CCCCCCCCCCCCCCC (racemic) [PLAG, 1-palmitoyl-2-linoleoyl-3-acetylglycerol]",protection from cyclophosphamide-induced neutropenia,[1],substantially complete protection
same,Platelet Conc.,platelets,450.00 k/ul
same,STAT1 phosphorylation,STAT1 [2],No effect
same,"STAT1 expression (transcriptional activity, reporter)",STAT1 [3],no effect
